Like-named read-outs stand apart in the source and are kept apart here.
How the values were obtained:
rat isolated bladder = test: Test Example 3: effect on electrical field stimulation-induced contraction in rat isolated bladder; details: 10 μM test substance; AUC of contraction, value before treatment = 100%; SD female rat bladder
Method: Test Example 3: Effect on Electrical Field Stimulation-Induced Contraction in Rat Isolated Bladder
As an effect on the nerve stimulation-dependent bladder contraction in in vitro, the effect of the Example compounds of the present invention in the electrical field stimulation-induced contraction of the rat isolated bladder was measured by the following method. That is, a bladder specimen having a width of about 2 mm and a length of about 10 mm in the longitudinal direction from the bladder isolated from a Sprague-Dawley (SD) female rat (Japan SLC, Inc.) was prepared. The prepared bladder specimen was suspended in an organ bath filled with 10 mL of a Krebs-Henseleite solution. The Krebs-Henseleite solution was aerated at 95% 02 and 5% CO2, and kept at 37° C. After carrying out stabilization at an initial tension of 1 g, the contraction was caused twice with 60 mM KCl. After stabilization of the specimen with a Krebs-Henseleite solution, the contraction was caused by carrying out electrical field stimulation at 20 V with an electrical stimulation device (Nihon Kohden) (a stimulation frequency of 8 Hz, a pulse width of 0.3 msec, and a stimulation time of 10 seconds). By repeating the transmural electrical stimulation at an interval of 2 minutes, a voltage was adjusted to obtain a contraction height of approximately 50% of the contractile response at 20 V. After the contraction by electrical field stimulation had been stabilized, 10 μL of the test substances dissolved in 100% dimethyl sulfoxide in advance (final concentrations of 3 μM, 10 μM, and 30 μM) was added thereto. The test substances were cumulatively administered at the following concentrations after the low-concentration contractile response had been stabilized. The response was taken into a personal computer through a PowerLab (registered trademark) (AD Instruments, Inc.), and analyzed by LabChart (registered trademark) (AD Instruments, Inc.). When the area under the response (area under curve, AUC) in each contraction response was calculated and the value before treatment with the test substance was taken as 100%, the enhancement rate (% of pre) of the isolated bladder contractions after treatment with the test substance was calculated.

[1] = target: T1, human muscarinic M3 receptor (Homo sapiens, UniProt P20309); test: Test Example 1: muscarinic M3 receptor positive allosteric modulator activity (shift of carbachol concentration-response curve, intracellular Ca2+, FLIPR); details: carbachol EC50 without / with test substance, CHO-K1 cells expressing human M3; for muscarinic M3 receptor-positive allosteric modulator activity, 1 μM (-fold shift): test substance 1 μM; for muscarinic M3 receptor-positive allosteric modulator activity, 10 μM (-fold shift): test substance 10 μM
Description: (§1) Test Example 1: Evaluation of Muscarinic M3 Receptor Positive Allosteric Modulator Activity
(§2) a) Construction of Vector Expressing Human Muscarinic M3 Receptor
(§3) A human muscarinic M3 receptor gene (GenBank Accession No.: NM_000740.2) was introduced into an expression vector pcDNA3.1™ (Life Technologies).
(§4) b) Construction of Cells Stably Expressing Human Muscarinic M3 Receptor
(§5) A vector expressing a human muscarinic M3 receptor was introduced into a CHO—K1 cell (ATCC No.: CCL-61). The introduction was carried out according to the attached instructions, using a transfection reagent, Lipofectoamine (registered trademark) 2000 Reagent (Life Technologies). The cells were incubated in an alpha Modified Eagle Minimum Essential Medium (α-MEM) including 2 mM glutamine, 10% fetal bovine serum, and 2.0 mg/mL Geneticin (registered trademark) (Life Technologies) for 4 weeks to acquire a drug-resistant clone.
(§6) c) Measurement of Intracellular Ca^2+ Concentration
(§7) The cells obtained in b) above were suspended in an α-MEM including 2 mM glutamine, 10% fetal bovine serum, and 0.2 mg/mL Geneticin (registered trademark) to the amount from 1.2 to 1.5×10^4 cells/well the day before the experiment, dispensed into a 384-well plate (Model No. 355962, BD Biosciences), and incubated overnight at 37° C. and 5% CO2. The medium was replaced with a loading buffer (an assay buffer (Hank's balanced salt solution (HBSS), 1 g/L BSA, 20 mM HEPES (pH 7.5), and 2.5 mM probenecid), including 3.1 μM Fluo 4-AM (Dojindo Laboratories) and incubated for about 2 hours at room temperature. Thereafter, the cells were washed with a plate washer ELx405™ (BIO-TEK Instrument, Inc.) set with the assay buffer, and set in an intracellular Ca^2+ concentration measuring system (FLIPR^tetra (registered trademark), Molecular Device Co.). The test substances (final concentration of 1 μM or 10 μM) and carbachol (Sigma, final concentration of 0.0024 nM to 10 μM) which had each been dissolved in the assay buffer in advance were set in a FLIPR^tetra (registered trademark). The test substances were added to the cells in the device and after about 5 minutes, carbachol was added to the cells. An increase rate of the intracellular Ca^2+ concentration by carbachol was measured (excitement wavelength of 470 nm to 495 nm and a fluorescence wavelength of 515 nm to 575 nm).
(§8) For the muscarinic M3 receptor-positive allosteric modulator activity, a shift toward a lower concentration side of a carbachol concentration-response curve by the test substance was used as an index. […] For example, when the EC50 value of carbachol in the absence of the test substance was 0.1 μM and the EC50 value of carbachol in the presence of the test substance was 0.01 μM, the value of the muscarinic M3 receptor-positive allosteric modulator activity becomes 10, showing that the test substance causes a 10-fold shift in the EC50 value toward to the low concentration side.

[2] = target: T1, human muscarinic M3 receptor
Description: as §1, §2, §3, §4, §5, §6, §7, §8

T1 sequence (P20309 whole entry): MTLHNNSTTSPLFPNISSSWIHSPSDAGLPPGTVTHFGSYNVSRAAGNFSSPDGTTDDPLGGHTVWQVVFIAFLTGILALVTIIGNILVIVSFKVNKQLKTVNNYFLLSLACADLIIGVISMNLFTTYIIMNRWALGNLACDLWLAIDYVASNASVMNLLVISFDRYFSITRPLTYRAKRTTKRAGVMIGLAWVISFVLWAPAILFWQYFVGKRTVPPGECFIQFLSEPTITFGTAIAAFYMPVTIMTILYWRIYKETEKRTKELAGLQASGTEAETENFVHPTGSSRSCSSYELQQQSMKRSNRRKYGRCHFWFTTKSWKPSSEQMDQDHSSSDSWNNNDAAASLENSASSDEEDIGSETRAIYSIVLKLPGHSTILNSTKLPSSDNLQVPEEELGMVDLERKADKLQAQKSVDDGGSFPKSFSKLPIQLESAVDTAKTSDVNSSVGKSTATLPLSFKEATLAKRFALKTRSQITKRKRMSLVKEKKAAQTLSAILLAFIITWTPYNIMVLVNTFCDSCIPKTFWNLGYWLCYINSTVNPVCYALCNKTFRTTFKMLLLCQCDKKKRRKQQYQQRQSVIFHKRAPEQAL

SMILES	muscarinic M3 receptor-positive allosteric modulator activity, 1 μM (-fold shift) [1]	muscarinic M3 receptor-positive allosteric modulator activity, 10 μM (-fold shift) [1]	muscarinic M3 receptor-positive allosteric modulator activity, 1 μM (-fold shift) [2]	muscarinic M3 receptor-positive allosteric modulator activity, 10 μM (-fold shift) [2]	Enhancement rate (% of pre) of isolated bladder contractions (rat isolated bladder)
C[C@@H]1CCCN1Cc1sc(NC(=O)c2cnc(N3CCN(CCC(=O)[O-])CC3)cn2)nc1-c1cc(C#N)cc(C(F)(F)F)c1.[Na+] [Example 34]	18 -fold shift	116 -fold shift	–	–	137 % of pre
CC(C(=O)O)N1CCN(c2cnc(C(=O)Nc3nc(-c4cc(F)cc(C(F)(F)F)c4)c(CN4CCC[C@H]4C)s3)cn2)CC1 (stereo partly drawn) [Example 64]	–	–	23 -fold shift	128 -fold shift	162 % of pre
C[C@@H]1CCCN1Cc1sc(NC(=O)c2cnc(N3CCN(CCCC(=O)O)CC3)cn2)nc1-c1cc(F)cc(C(F)(F)F)c1 [Example 21]	–	–	25 -fold shift	149 -fold shift	141 % of pre

The next lines start with results.

muscarinic M3 receptor-positive allosteric modulator activity, 1 μM (-fold shift) [1]	muscarinic M3 receptor-positive allosteric modulator activity, 10 μM (-fold shift) [1]	muscarinic M3 receptor-positive allosteric modulator activity, 1 μM (-fold shift) [2]	muscarinic M3 receptor-positive allosteric modulator activity, 10 μM (-fold shift) [2]	SMILES	Enhancement rate (% of pre) of isolated bladder contractions (rat isolated bladder)
28 -fold shift	101 -fold shift	–	–	CCC[C@@H]1CCCN1Cc1sc(NC(=O)c2cnc(N3CCN(CCC(=O)[O-])CC3)cn2)nc1-c1cccc(C(F)(F)F)c1.[Na+] [Example 124]	132 % of pre
–	–	25 -fold shift	204 -fold shift	CC[C@@H]1CCCN1Cc1sc(NC(=O)c2cnc(N3CCN(CCC(=O)O)C[C@H]3C)cn2)nc1-c1ccc(OC(C)C)c(C(F)(F)F)c1 [Example 135]	139 % of pre
–	–	21 -fold shift	87 -fold shift	COc1ccc(-c2nc(NC(=O)c3cnc(N4CCN(CCC(=O)O)[C@@H](C)C4)cn3)sc2CN2CCC[C@H]2C)cc1C(F)(F)F [Example 10]	161 % of pre
–	–	24 -fold shift	90 -fold shift	CC[C@@H]1CCCN1Cc1sc(NC(=O)c2cnc(N3CCN(CCC(=O)O)CC3)cn2)nc1-c1cccc(C(F)(F)F)c1 [Example 65]	127 % of pre
–	–	39 -fold shift	141 -fold shift	CC[C@@H]1CCCN1Cc1sc(NC(=O)c2cnc(N3CCN(CCC(=O)O)CC3)cn2)nc1-c1ccc(OC)c(C(F)(F)F)c1 [Example 42]	158 % of pre
